The source of these data is patent US8207216B2, “Benzofuran-3-yl(indol-3-yl) maleimides as potent GSK3 inhibitors” (The Board of Trustees of the University of Illinois, priority 2006, dated 2012).

One assay has as its system MIAPaCa-2. Put plainly: Antiproliferation MTS assay, pancreatic cancer cells. The format is cell-based. Conditions: Homo sapiens. In general terms: Tetrazolium assays rely on reduction of a dye to a coloured formazan, in cell work by metabolically active cells.
In a further assay the test system is HupT3. The assay is described as above. The assay is classed as cell-based. Conditions: Homo sapiens, HuP-T3, as reported in Gaisina et al. (2009) J. Med. Chem. 52(7), 1853-1863.
The test system of the next assay is BXPC-3. Described as above. The assay is classed as cell-based. Conditions: Homo sapiens, BXPC-3, as reported in Gaisina et al. (2009) J. Med. Chem. 52(7), 1853-1863.
The test system of assay [1] is pancreatic cancer cell lines. Conditions: BXPC3, HupT3 and MiaPaCa-2; Ougolkov et al. (2007) Blood 110: 735-742; cited from earlier work.
The target of the next assay is Axl (Homo sapiens, UniProt P30530). In words: Kinase panel (Novartis). The format is biochemical.
For the next assay, the target named is FGFR-3-K650E (Homo sapiens, UniProt P22607, K650E). In words: Kinase panel (Novartis). The assay is classed as biochemical.
Another assay concerns the target JAK-2 (Homo sapiens, UniProt O60674). In words: Kinase panel (Novartis). The format is biochemical.
Another assay deals with Flt-3 (Homo sapiens, UniProt P36888). Put plainly: Kinase panel (Novartis). The assay is classed as biochemical.
The target in assay [2] is T1, recombinant human His6-GSK-3β (Homo sapiens, UniProt P49841).
T1 construct: His6; purchased EMD Biosciences
In words: GSK-3β kinase assay, [γ32P] transfer to primed glycogen synthase peptide.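 Note: phosphate incorporation quantified by liquid scintillation counting of the filters.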 The assay is classed as biochemical. Conditions: 10 μM ATP; 10 μM pGSM peptide; 30 minutes at 30° C.; read-out: IC50 (nM), GSK-3β inhibition.

The target in the next assay is KDR (Homo sapiens, UniProt P35968). Put plainly: Kinase panel (Novartis). The format is biochemical.
For assay [3], the target named is T2, PDK1 (Homo sapiens, UniProt O15530).
T2 sequence (O15530 1-556): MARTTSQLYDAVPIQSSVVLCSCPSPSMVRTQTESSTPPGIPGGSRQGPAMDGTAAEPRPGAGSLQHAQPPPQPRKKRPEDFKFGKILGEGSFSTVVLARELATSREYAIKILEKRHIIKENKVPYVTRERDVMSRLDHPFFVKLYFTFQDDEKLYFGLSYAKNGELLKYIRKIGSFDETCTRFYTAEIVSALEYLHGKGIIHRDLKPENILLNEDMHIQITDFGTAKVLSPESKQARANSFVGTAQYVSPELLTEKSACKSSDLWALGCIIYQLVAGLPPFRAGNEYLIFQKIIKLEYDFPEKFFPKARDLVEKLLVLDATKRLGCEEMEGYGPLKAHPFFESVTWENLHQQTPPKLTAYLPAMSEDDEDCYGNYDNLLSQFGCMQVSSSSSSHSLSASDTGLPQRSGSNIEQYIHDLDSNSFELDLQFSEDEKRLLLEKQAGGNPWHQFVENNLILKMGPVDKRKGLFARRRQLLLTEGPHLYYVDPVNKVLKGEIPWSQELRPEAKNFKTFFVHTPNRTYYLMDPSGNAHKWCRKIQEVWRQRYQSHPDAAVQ
Put plainly: Kinase panel (Novartis). The format is biochemical.

For another assay, the target named is c-Met (Homo sapiens, UniProt P08581). Put plainly: Kinase panel (Novartis). The assay is classed as biochemical.
A further assay concerns the target HER-1 (Homo sapiens, UniProt P00533). Put plainly: Kinase panel (Novartis). The assay is classed as biochemical.
The target of another assay is b-Raf-V599E (Homo sapiens, UniProt P15056, V600E). Put plainly: Kinase panel (Novartis). The format is biochemical.
Another assay addresses c-Abl-T3151 (Homo sapiens, UniProt P00519, T315I). Put plainly: Kinase panel (Novartis). The format is biochemical.
For a further assay, the target named is FAK (Homo sapiens, UniProt Q05397). In words: Kinase panel (Novartis). The assay is classed as biochemical.
A further assay addresses EphB4 (Homo sapiens, UniProt P54760). Put plainly: Kinase panel (Novartis). The format is biochemical.
For another assay, the target named is IGF-1R (Homo sapiens, UniProt P08069). Put plainly: Kinase panel (Novartis). The format is biochemical.
The target in a further assay is c-src (Homo sapiens, UniProt P12931). Put plainly: Kinase panel (Novartis). The format is biochemical.
For the next assay, the target named is c-Abl (Homo sapiens, UniProt P00519). Put plainly: Kinase panel (Novartis). The assay is classed as biochemical.
For another assay, the target named is Ret (Homo sapiens, UniProt P07949). Put plainly: Kinase panel (Novartis). The format is biochemical.
In a further assay the target is CDK2/A (Homo sapiens, UniProt P24941). Put plainly: Kinase panel (Novartis). The assay is classed as biochemical.
The target of the next assay is Tek (Homo sapiens, UniProt Q02763). Put plainly: Kinase panel (Novartis). The assay is classed as biochemical.
Another assay concerns C57BL/6J mice. In words: Amphetamine/chlordiazepoxide hyperactivity model of mania, open field locomotor activity. The assay is classed as in vivo. Conditions: 5-ING-135 50 mg/kg, 5 min pretreatment; amphetamine 4 mg/kg + chlordiazepoxide 2.5 mg/kg; 60 min. On the procedure:
Hyperactivity models are often used to mimic the mania associated with bipolar disorder.
Certain benzofuran-based ligands of this invention were studied in a novel mouse model of mania that has recently been validated with several clinically effective mood stabilizers. […] Mice were then injected with amphetamine (4 mg/kg) or amphetamine (4 mg/kg) and chlordiazepoxide (2.5 mg/kg) and locomotor activity was monitored for 60 min. The open field is a square box surrounded by an array of infra-red beams and their behavior is automatically recorded for 60 minutes in the open field test chamber (10.75″×10.75″×8″H with infra-red (I/R) array, model ENV 510, MED Associates). After this period the animals were returned to their home cages and then to the main colony.
Control treatments are as indicated. FIG. 1B illustrates similar locomotion activity data of treated mice measured in cm over 5 minute intervals for 60 minutes.

Assay [4] deals with T2, PDK1. In words: Inhibition of various kinases (% inhibition). The assay is classed as biochemical. The text has this: (§1) Additional examples of selectivity are illustrated in Table 4.
Another assay concerns the target GSK3α (Homo sapiens, UniProt P49840). In words: Inhibition of various kinases (% inhibition). The assay is classed as biochemical.
Source text: as §1

A further assay has as its target CDK2 (Homo sapiens, UniProt P24941). In words: Inhibition of various kinases (% inhibition). The format is biochemical.
Source text: as §1

For the next assay, the target named is PKCβ2 (Homo sapiens, UniProt P05771). In words: Inhibition of various kinases (% inhibition). The assay is classed as biochemical.
Source text: as §1

The test system of assay [5] is pancreatic cancer cell lines. In words: Proliferation and survival of pancreatic cancer cells (overall statements). The assay is classed as cell-based. On the procedure:
(§2) The pancreatic cancer cell lines BxPc-3, HupT3, MiaPaCa-2, Panc 04.03, and SU86.86 were obtained from ATCC (Rockville, Md.) and were grown in medium (DMEM or RPMI) containing 10% fetal calf serum and L-glutamine. Pancreatic cancer cells were plated out in duplicate into 6-wells of a 96-well microtiter plate at 2.5−4×10^3 cells per well. Four-hours post plating, individual wells were treated with diluent (DMSO) or varying concentrations of commercial compounds, AR-A014418 and SB216763, or the indicated GSK inhibitors of this invention from a concentration of 1 nM to 50 microM. […] The IC50s were calculated using XLfit (IDBS Limited, Guildford, UK).

In a further assay the test system is GSK-3β. Put plainly: GSK-3β activity in cells by glycogen synthase phosphorylation, Western immunoblotting. The assay is classed as cell-based. On the technique in general: In western blotting, separated proteins are transferred to a membrane and probed.
A further assay has as its system XIAP. In words: NFκB-mediated expression of XIAP in pancreatic cancer cells. The assay is classed as cell-based.
In another assay the test system is mice. Conditions: Hanania et al. 2005, Brody et al. 2003; cited from earlier work.
The next assay deals with SKOV3. Put plainly: Antiproliferation assay, ovarian cancer cells. The format is cell-based. Conditions: Homo sapiens, SK-OV-3; ovarian cancer cell proliferation. The method, then:
as §2
(§3) Similar antiproliferation assays were performed using ovarian cancer cells. Compound 40 is of particular interest for inhibition of ovarian cancer cell proliferation.

Another assay deals with OVCA432. In words: Antiproliferation assay, ovarian cancer cells. The assay is classed as cell-based. Conditions: ovarian cancer cell proliferation. The method, then: as §2, §3
The mark [6] stands for this setting: MIA PaCa-2, as reported in Gaisina et al. (2009) J. Med. Chem. 52(7), 1853-1863.

What is called IC50 is the point on the concentration scale where inhibition reaches its midpoint. Broadly, the inhibition is the change of the read-out against control, counted positive when it falls.

Each structure is given as a SMILES string.

Sequence of GSK3α (P49840 whole entry, species assumed): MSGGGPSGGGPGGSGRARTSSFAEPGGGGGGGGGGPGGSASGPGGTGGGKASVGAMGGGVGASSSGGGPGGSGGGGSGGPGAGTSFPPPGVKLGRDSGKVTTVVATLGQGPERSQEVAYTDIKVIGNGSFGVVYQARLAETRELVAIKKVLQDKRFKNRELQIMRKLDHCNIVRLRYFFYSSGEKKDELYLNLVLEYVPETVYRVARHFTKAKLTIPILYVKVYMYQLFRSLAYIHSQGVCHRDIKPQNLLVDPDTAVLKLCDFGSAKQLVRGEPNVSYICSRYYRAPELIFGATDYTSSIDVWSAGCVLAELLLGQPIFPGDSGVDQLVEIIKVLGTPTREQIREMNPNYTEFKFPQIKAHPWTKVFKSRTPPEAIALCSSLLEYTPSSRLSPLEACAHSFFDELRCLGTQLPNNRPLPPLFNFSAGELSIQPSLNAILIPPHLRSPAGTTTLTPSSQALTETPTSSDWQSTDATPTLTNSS
T1 sequence (P49841 whole entry): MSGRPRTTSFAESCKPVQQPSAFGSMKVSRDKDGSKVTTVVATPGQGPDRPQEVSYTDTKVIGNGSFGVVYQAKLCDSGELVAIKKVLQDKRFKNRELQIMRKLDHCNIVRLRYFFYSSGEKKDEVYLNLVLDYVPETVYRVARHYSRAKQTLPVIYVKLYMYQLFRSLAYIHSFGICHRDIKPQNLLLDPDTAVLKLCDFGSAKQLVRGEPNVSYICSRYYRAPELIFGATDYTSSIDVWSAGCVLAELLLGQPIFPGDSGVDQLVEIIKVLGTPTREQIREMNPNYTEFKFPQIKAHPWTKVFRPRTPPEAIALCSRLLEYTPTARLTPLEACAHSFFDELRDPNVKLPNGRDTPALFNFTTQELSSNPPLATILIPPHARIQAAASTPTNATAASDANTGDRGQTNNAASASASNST
Sequence of PKCβ2 (P05771 1-673 isoform P05771-2): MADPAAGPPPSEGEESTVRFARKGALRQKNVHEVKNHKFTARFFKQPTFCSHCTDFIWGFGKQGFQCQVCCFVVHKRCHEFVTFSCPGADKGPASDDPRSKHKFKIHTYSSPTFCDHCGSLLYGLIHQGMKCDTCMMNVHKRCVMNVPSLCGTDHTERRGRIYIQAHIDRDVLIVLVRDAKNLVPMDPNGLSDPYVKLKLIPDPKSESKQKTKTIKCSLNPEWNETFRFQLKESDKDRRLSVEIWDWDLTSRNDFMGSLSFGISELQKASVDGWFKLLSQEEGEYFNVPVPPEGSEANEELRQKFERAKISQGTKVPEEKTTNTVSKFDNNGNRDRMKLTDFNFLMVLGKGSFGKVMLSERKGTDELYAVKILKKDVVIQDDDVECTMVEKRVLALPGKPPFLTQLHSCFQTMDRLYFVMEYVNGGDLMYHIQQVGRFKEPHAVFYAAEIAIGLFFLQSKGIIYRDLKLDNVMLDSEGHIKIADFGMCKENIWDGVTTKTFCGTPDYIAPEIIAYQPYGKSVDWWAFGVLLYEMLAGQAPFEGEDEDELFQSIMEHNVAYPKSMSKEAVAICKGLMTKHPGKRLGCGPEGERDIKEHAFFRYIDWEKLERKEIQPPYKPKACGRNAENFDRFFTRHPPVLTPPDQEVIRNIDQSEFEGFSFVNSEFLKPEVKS
Sequence of Tek (Q02763 23-1124, species assumed): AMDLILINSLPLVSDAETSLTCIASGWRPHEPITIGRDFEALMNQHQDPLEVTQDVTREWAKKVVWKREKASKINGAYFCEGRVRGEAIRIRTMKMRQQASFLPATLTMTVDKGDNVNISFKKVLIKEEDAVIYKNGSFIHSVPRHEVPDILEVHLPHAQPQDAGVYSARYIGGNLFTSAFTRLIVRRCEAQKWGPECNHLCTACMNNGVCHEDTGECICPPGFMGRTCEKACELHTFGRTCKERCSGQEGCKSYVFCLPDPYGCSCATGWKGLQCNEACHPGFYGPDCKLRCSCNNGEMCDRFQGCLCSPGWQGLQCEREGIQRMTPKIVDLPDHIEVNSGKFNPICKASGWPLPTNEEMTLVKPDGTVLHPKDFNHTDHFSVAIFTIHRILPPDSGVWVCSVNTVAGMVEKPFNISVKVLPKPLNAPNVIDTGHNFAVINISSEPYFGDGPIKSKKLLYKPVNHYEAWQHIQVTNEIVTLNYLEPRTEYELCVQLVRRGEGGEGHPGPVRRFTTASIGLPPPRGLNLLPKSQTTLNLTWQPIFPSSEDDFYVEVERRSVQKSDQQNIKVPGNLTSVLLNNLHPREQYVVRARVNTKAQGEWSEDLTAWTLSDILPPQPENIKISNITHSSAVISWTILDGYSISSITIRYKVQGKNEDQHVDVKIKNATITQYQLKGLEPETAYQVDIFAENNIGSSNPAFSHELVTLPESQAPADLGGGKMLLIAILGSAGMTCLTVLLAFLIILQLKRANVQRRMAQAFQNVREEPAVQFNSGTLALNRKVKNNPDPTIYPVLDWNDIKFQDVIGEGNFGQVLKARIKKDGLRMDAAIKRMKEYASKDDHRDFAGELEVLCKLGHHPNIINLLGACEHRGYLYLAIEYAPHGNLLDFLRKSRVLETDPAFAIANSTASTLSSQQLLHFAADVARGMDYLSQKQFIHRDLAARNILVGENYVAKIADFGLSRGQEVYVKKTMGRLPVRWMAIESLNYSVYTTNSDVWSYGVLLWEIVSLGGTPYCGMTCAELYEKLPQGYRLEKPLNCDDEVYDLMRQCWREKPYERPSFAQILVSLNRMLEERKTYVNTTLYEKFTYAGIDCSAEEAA
Sequence of b-Raf-V599E (P15056 whole entry V600E): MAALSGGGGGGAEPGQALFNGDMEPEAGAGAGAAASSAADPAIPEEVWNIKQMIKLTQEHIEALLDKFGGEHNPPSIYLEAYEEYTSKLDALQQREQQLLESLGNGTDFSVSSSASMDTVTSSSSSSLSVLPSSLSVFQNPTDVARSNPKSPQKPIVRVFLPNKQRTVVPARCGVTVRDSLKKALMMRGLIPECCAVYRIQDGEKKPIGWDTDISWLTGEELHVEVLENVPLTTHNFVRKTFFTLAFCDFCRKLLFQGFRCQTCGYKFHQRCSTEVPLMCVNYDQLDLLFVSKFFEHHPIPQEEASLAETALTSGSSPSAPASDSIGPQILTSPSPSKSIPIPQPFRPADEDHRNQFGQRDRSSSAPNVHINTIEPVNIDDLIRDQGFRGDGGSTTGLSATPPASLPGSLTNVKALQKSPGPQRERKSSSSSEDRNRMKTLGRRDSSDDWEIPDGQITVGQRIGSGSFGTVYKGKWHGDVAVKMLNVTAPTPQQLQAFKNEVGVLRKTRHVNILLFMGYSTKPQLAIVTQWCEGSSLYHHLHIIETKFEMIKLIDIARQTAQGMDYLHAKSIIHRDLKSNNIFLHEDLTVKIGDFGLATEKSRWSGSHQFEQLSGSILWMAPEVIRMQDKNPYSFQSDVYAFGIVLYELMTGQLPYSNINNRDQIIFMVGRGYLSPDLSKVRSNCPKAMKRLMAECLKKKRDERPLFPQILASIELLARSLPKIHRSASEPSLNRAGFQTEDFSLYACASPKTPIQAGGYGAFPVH
Sequence of c-src (P12931 whole entry, species assumed): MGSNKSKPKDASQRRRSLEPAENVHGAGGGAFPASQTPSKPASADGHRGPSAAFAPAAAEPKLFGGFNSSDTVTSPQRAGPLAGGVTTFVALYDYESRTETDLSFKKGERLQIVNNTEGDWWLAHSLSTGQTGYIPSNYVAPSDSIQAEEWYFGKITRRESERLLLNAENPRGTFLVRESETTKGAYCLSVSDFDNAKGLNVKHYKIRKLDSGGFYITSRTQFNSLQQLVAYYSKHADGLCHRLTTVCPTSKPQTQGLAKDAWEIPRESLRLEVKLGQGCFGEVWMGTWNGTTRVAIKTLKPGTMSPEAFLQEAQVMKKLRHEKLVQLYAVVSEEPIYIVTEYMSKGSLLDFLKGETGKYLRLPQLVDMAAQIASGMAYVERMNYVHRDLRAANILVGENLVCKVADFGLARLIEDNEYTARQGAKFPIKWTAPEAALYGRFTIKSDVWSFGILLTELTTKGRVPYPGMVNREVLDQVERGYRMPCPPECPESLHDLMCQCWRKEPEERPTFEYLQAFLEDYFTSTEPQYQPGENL
Sequence of Flt-3 (P36888 27-993, species assumed): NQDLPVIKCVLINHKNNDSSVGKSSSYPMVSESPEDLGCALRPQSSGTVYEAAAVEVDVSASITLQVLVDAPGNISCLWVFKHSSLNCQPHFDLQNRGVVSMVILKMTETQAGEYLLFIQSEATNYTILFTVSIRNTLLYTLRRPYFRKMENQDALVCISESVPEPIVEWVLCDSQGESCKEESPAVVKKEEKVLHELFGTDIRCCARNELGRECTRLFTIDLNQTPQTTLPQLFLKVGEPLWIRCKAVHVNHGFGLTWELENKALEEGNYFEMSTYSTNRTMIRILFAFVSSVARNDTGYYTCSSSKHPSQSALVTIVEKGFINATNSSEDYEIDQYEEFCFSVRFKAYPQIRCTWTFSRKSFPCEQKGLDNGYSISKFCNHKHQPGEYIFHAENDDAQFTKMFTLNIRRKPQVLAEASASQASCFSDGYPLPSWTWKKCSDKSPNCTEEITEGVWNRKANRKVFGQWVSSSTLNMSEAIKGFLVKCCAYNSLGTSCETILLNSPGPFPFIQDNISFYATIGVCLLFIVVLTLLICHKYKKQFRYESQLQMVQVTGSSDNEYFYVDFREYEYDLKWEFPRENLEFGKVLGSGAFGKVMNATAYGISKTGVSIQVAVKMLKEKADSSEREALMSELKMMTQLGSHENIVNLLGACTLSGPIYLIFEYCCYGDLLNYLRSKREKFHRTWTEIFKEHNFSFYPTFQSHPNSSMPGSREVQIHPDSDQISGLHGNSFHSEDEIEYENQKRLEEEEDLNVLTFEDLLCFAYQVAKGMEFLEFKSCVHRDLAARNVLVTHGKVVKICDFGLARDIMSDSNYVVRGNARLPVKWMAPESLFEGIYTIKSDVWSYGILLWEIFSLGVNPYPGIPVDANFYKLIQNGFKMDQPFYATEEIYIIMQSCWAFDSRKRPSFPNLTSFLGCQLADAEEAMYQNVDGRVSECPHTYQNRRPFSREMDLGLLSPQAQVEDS

Take `COc1ccc(CNC(=O)Nc2ncc([N+](=O)[O-])s2)cc1` [AR-A014418, reference compound]: the IC50 is 29 ± 1.7 µM in the assay with MIAPaCa-2 (setting [6]); 25 µM in the assay on MIAPaCa-2 (MIA PaCa-2, 72 hrs, MTS); 22 ± 2.1 µM in the assay with HupT3; 14 ± 0.6 µM in the assay with BXPC-3. In assay [1], the “Pancreatic cancer cell proliferation, reference compounds” value is “significant decrease in pancreatic cancer cell proliferation”.
As to `Cn1cc(C2=C(c3coc4ccccc34)C(=O)NC2=O)c2ccc(O)cc21` [Compound 45, 3-Benzofuran-3-yl-4-(6-hydroxy-1-methyl-1H-indol-3-yl)-pyrrole-2,5-dione], the IC50 is above 10 µM at Axl; 7 µM on FGFR-3-K650E; above 10 µM on JAK-2; above 10 µM on Flt-3; 15 ± 3 nM in assay [2]; 2.2 µM on KDR. Moreover, the IC50 against PDK1 [3] is 0.73 µM; against c-Met, above 10 µM; at HER-1, 6.3 µM; against b-Raf-V599E, above 10 µM; on c-Abl-T3151, above 10 µM; against FAK, above 10 µM. In addition, the IC50 was above 10 µM on EphB4; above 10 µM against IGF-1R; 4.5 µM against c-src; above 10 µM against c-Abl; 5 µM against Ret; above 10 µM against CDK2/A. On Tek, this molecule yielded an IC50 above 10 µM.
For `C#Cc1ccc2c(c1)c(C1=C(c3coc4ccccc34)C(=O)NC1=O)cn2C` [Compound 36, 3-Benzofuran-3-yl-4-(5-ethynyl-1-methyl-1H-indol-3-yl)-pyrrole-2,5-dione], the IC50 is 9.6 ± 4 nM in assay [2] and above 50 µM with MIAPaCa-2 (MIA PaCa-2, 72 hrs, MTS). In the assay with C57BL/6J mice, the “Inhibition of hyperactivity produced by amphetamine/chlordiazepoxide (locomotor activity)” value is given as “exhibited inhibition of the hyperactivity”. The inhibition at 1 µM at PDK1 [4] was 14%; against GSK3α, 89%; on CDK2 it was 68%; against PKCβ2, 24%. For the same molecule, the inhibition at 10 µM on PDK1 [4] was found to be 27%; on GSK3α, 100%; on CDK2, 100%; at PKCβ2, 74%.
On to `Cn1cc(C2=C(c3coc4ccc(F)cc34)C(=O)NC2=O)c2ccc(O)cc21` [Compound 46, 3-(5-Fluoro-benzofuran-3-yl)-4-(6-hydroxy-1-methyl-1H-indol-3-yl)-pyrrole-2,5-dione], for which the IC50 in assay [2] was determined as 14 ± 3 nM. Also, the “Inhibition of hyperactivity produced by amphetamine/chlordiazepoxide (locomotor activity)” value in the assay with C57BL/6J mice is “exhibited inhibition of the hyperactivity”.
As for `COc1cc2c(C3=C(c4coc5ccccc45)C(=O)NC3=O)cn(C)c2cc1Cl` [Compound 42, 3-Benzofuran-3-yl-4-(6-chloro-5-methoxy-1-methyl-1H-indol-3-yl)-pyrrole-2,5-dione], the “Proliferation and survival of pancreatic cancer cells” value in assay [5] was “did not affect GSK-3β activity, proliferation or survival”. The IC50 in [2] was 440 ± 22 nM; with MIAPaCa-2 (MIA PaCa-2, 72 hrs, MTS) it was above 50 µM. The “GSK-3β activity in pancreatic cancer cells (phosphorylation of glycogen synthase)” value (shortened to “GSK-3β activity”) in the assay with GSK-3β was “did not affect GSK-3β activity”.
On to `COc1cccc2c(C3=C(c4cn(C)c5cc(I)c(F)cc45)C(=O)NC3=O)coc12` [Compound 10, 3-(5-Fluoro-6-iodo-1-methyl-1H-indol-3-yl)-4-(7-methoxy-benzofuran-3-yl)-pyrrole-2,5-dione], for which the concentration for half-maximal inhibition (IC50) in assay [2] worked out at 247 ± 28 nM. Further, the “NFκB-mediated expression of XIAP” value with XIAP is recorded as “pronounced decrease in NFκB-mediated expression of XIAP”. The inhibition at 1 µM on PDK1 [4] is -1%; on GSK3α it was 60%; against CDK2 it was 9%; against PKCβ2 it was 2%. The inhibition at 10 µM is 6% on PDK1 [4], 95% on GSK3α, 35% against CDK2 and 15% at PKCβ2. The “GSK-3β activity” value in the assay with GSK-3β is on record as “effectively inhibited GSK-3β activity”.
With `CCCC(CCC)C(=O)O` [valporate], the “Sensorimotor gating (prepulse inhibition)” value with mice was “improve sensorimotor gating”.
Consider `Cn1cc(C2=C(c3coc4ccc(F)cc34)C(=O)NC2=O)c2cc3c(cc21)OCO3` [Compound 40, 3-(5-Fluoro-benzofuran-3-yl)-4-(5-methyl-5H-[1,3]dioxolo[4,5-f]indol-7-yl)-pyrrole-2,5-dione], for which the IC50 in assay [2] is 708 ± 156 nM; in the assay with SKOV3, 10.5 µM; in the assay on OVCA432, 11.2 µM. Moreover, the “NFκB-mediated expression of XIAP” value in the assay with XIAP is on record as “pronounced decrease in NFκB-mediated expression of XIAP”. For the same molecule, in the assay with GSK-3β, the “GSK-3β activity” value is “effectively inhibited GSK-3β activity”.
With `Cn1cc(C2=C(c3ccc(Cl)cc3Cl)C(=O)NC2=O)c2ccccc21` [SB216763, reference compound], the IC50 came to 25 ± 0.9 µM in the assay with MIAPaCa-2 (setting [6]) and 25 µM in the assay on MIAPaCa-2 (MIA PaCa-2, 72 hrs, MTS). Besides, the “Pancreatic cancer cell proliferation, reference compounds” value in assay [1] was “significant decrease in pancreatic cancer cell proliferation”.
